Experimental data: ChEMBL document CHEMBL3822409, “Synthesis and antitubercular activity of new 1,3,4-oxadiazoles bearing pyridyl and thiazolyl scaffolds” (Bioorg Med Chem Lett, 2016)
≈ marks a conversion by molar mass, not a printed value.

How the values were obtained:
[1] = Selectivity index, ratio of CC50 for human HCT116 cells to MIC for active stage of Mycobacterium bovis BCG ATCC 35734; type: toxicity, cell-based, HCT-116; conditions: read-out: Selectivity Index
[2] = Selectivity index, ratio of CC50 for human PANC1 cells to MIC for active stage of Mycobacterium bovis BCG ATCC 35734; type: toxicity, cell-based, PANC-1; conditions: read-out: Selectivity Index
[3] = Selectivity index, ratio of CC50 for human HCT116 cells to MIC for dormant stage of Mycobacterium bovis BCG ATCC 35734; type: toxicity, cell-based, HCT-116; conditions: read-out: Selectivity Index
[4] = Selectivity index, ratio of CC50 for human HeLa cells to MIC for dormant stage of Mycobacterium bovis BCG ATCC 35734; type: toxicity, cell-based; conditions: read-out: Selectivity Index
[5] = Selectivity index, ratio of CC50 for human HeLa cells to MIC for active stage of Mycobacterium bovis BCG ATCC 35734; type: toxicity, cell-based; conditions: read-out: Selectivity Index
[6] = test system: Mycobacterium tuberculosis; assay: Antimycobacterial activity against active stage of Mycobacterium tuberculosis H37Ra ATCC 25177 measured on day 8 by XTT reduction menadione assay; type: functional, organism-based; conditions: H37Ra ATCC 25177, 192 h
[7] = Selectivity index, ratio of CC50 for human THP1 cells to MIC for dormant stage of Mycobacterium bovis BCG ATCC 35734; type: toxicity, cell-based, THP-1; conditions: read-out: Selectivity Index
[8] = Selectivity index, ratio of CC50 for human THP1 cells to MIC for active stage of Mycobacterium bovis BCG ATCC 35734; type: toxicity, cell-based, THP-1; conditions: read-out: Selectivity Index
[9] = Cytotoxicity against human HeLa cells by MTT assay; type: cell-based
[10] = Selectivity index, ratio of CC50 for human PANC1 cells to MIC for dormant stage of Mycobacterium bovis BCG ATCC 35734; type: toxicity, cell-based, PANC-1; conditions: read-out: Selectivity Index
[11] = Cytotoxicity against human PANC1 cells by MTT assay; type: cell-based, PANC-1
[12] = Cytotoxicity against human HCT116 cells by MTT assay; type: cell-based, HCT-116
[13] = Cytotoxicity against human THP1 cells by MTT assay; type: cell-based, THP-1
[14] = test system: Mycobacterium tuberculosis; assay: Antimycobacterial activity against dormant stage of Mycobacterium tuberculosis H37Ra ATCC 25177 measured on day 12 by XTT reduction menadione assay; type: functional, organism-based; conditions: H37Ra ATCC 25177, 288 h

Compound | selectivity ratio [1] | selectivity ratio [2] | selectivity ratio [3] | selectivity ratio [4] | selectivity ratio [5] | IC50 [6] [µg/mL] | MIC [6] [µg/mL] | selectivity ratio [7] | selectivity ratio [8] | CC50 [9] [µg/mL] | selectivity ratio [10] | CC50 [11] [µg/mL] | CC50 [12] [µg/mL] | CC50 [13] [µg/mL] | IC50 [14] [µg/mL] | MIC [14] [µg/mL]
Cc1nc(-c2cccnc2)sc1-c1nnc(-c2ccccc2Cl)o1 | 19 | 19 | 21 | 21 | 19 | > 30 | > 30 | 21 | 19 | > 100 | 21 | > 100 | > 100 | > 100 | > 30 | > 30
Cc1cccc(-c2nnc(-c3sc(-c4cccnc4)nc3C)o2)c1 | 3 | 3 | 3 | 3 | 3 | > 30 | > 30 | 3 | 3 | > 100 | 3 | > 100 | > 100 | > 100 | > 30 | > 30
Cc1nc(-c2cccnc2)sc1-c1nnc(-c2ccc(Br)cc2)o1 | 3 | 3 | 3 | 3 | 3 | > 30 | > 30 | 3 | 3 | > 100 | 3 | > 100 | > 100 | > 100 | > 30 | > 30
Cc1nc(-c2cccnc2)sc1-c1nnc(Cc2ccccc2)o1 | 9 | 9 | 10 | 10 | 9 | > 30 | > 30 | 10 | 9 | > 100 | 10 | > 100 | > 100 | > 100 | > 30 | > 30
Cc1nc(-c2cccnc2)sc1-c1nnc(-c2cccnc2)o1 | 2 | 2 | 1 | 1 | 2 | > 30 | > 30 | 1 | 2 | > 100 | 1 | > 100 | > 100 | > 100 | > 30 | > 30
Cc1nc(-c2cccnc2)sc1-c1nnc(-c2ccccc2[N+](=O)[O-])o1 | 39 | 39 | 17 | 17 | 39 | > 30 | > 30 | 17 | 39 | > 100 | 17 | > 100 | > 100 | > 100 | > 30 | > 30
Cc1nc(-c2cccnc2)sc1-c1nnc(-c2ccc(Cl)cc2)o1 | 3 | 3 | 3 | 3 | 3 | > 30 | > 30 | 3 | 3 | > 100 | 3 | > 100 | > 100 | > 100 | > 30 | > 30
CC(=O)O[C@H]1C(=O)[C@@]2(C)[C@H]([C@H](OC(=O)c3ccccc3)[C@]3(O)C[C@H](OC(=O)[C@H](O)[C@@H](NC(=O)c4ccccc4)c4ccccc4)C(C)=C1C3(C)C)[C@]1(OC(C)=O)CO[C@@H]1C[C@@H]2O [PACLITAXEL] |  |  |  |  |  |  |  |  |  | 0.0048 (≈ 0.00562 µM) |  | 0.128 (≈ 0.15 µM) | 1.85 (≈ 2.17 µM) | 0.137 (≈ 0.161 µM) |  | 
CO[C@H]1/C=C/O[C@@]2(C)Oc3c(C)c(O)c4c(O)c(c(/C=N/N5CCN(C)CC5)c(O)c4c3C2=O)NC(=O)/C(C)=C\C=C\[C@H](C)[C@H](O)[C@@H](C)[C@@H](O)[C@@H](C)[C@H](OC(C)=O)[C@@H]1C [RIFAMPIN] | 1250 | 1250 | 714 | 714 | 1250 |  | 0.02 (≈ 0.0243 µM) | 714 | 1250 | > 100 | 714 | > 100 | > 100 | > 100 | 0.0024 (≈ 0.00292 µM) | 0.03 (≈ 0.0365 µM)
